These results are taken from ChEMBL document CHEMBL4406855, “Design, synthesis and biological evaluation of N-(3-(1H-tetrazol-1-yl)phenyl)isonicotinamide derivatives as novel xanthine oxidase inhibitors” (Eur J Med Chem, 2019).

This assay addresses Xanthine dehydrogenase/oxidase (Bos taurus, UniProt P80457). As to the kind of experiment: Inhibition of bovine xanthine oxidase assessed as reduction in uric acid formation using xanthine as substrate preincubated for 10 mins followed by substrate addition measured at first 2 mins by spectrophotometric analysis.

Chain of Xanthine dehydrogenase/oxidase (P80457 whole entry): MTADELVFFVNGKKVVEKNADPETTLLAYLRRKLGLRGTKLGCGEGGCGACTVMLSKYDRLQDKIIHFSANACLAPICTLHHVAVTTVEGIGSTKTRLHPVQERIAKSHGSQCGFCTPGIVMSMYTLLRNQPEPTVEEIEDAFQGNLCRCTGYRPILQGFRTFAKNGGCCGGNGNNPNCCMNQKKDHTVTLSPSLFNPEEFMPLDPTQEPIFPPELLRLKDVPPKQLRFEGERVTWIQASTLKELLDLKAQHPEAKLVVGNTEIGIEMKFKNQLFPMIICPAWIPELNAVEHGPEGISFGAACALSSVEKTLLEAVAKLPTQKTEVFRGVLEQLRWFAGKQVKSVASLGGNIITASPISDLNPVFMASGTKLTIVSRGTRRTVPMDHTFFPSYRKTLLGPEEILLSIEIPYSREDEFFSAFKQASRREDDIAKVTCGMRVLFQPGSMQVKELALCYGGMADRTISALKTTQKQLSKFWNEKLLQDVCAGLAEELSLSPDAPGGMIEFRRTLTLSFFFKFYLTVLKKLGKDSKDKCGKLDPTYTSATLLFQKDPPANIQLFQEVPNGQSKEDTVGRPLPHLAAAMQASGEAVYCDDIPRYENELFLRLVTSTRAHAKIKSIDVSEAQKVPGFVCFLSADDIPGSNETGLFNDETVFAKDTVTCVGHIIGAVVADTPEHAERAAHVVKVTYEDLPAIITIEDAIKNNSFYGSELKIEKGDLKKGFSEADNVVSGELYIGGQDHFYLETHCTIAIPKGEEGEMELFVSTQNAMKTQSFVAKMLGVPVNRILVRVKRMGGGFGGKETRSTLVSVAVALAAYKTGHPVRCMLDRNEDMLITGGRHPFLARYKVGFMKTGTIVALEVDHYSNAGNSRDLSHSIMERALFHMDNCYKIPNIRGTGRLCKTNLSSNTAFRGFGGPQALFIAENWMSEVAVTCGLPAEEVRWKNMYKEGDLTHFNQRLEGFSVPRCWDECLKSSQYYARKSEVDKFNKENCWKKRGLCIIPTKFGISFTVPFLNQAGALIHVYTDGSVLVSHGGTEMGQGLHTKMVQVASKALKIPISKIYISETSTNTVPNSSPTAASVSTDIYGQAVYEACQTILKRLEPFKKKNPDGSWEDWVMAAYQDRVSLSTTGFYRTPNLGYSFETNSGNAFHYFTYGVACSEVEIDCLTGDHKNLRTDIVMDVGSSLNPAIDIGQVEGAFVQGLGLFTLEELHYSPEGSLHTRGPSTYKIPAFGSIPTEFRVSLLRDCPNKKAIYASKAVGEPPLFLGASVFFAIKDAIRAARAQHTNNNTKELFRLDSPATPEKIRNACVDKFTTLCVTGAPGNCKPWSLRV

The IC50 is the concentration that gives 50% inhibition. With `N#Cc1cc(-c2n[nH]c(-c3ccncc3)n2)ccn1` [TOPIROXOSTAT], the IC50 turned out to be 21 nM. The value for `N#Cc1ccccc1COc1ccc(NC(=O)c2ccncc2)cc1C#N` was 312 nM.
